US20170112714A1, “METHOD FOR ALLEVIATING OR TREATING ANAPHYLAXIS” (Korea Bio Medical Science Institute, priority 2015, published 2017)

Columns and labels:
Assay type in all cases: in vivo
mice = assay: Compound 48/80-induced systemic anaphylaxis, mortality; conditions: ketotifen orally 1 mg/kg 1 h before compound 48/80 (6.5 mg/kg i.p.); vs compound 48/80 alone, p<0.01
Experimental: The original stock of male ICR (4 weeks old) was purchased from the Dae-Han Experimental Animal Center (Eumsung, Chungbuk, Republic of Korea). Animal care and experimental procedures used were approved by the Animal Care Committee of Kyung Hee University [KHUASP (SE)-12-019].
(§1) Mice were given an intraperitoneal (i.p.) injection of compound 48/80 (6.5 mg/kg). The period used to observe mortality was based on the results of a pretest during which mice died within 30 min of administration. […] Mortality was monitored for 40 min post-injection. […] Three independent experiments were performed (n=15/group).
Jajinmori-jangdan and Hwimori-jangdan (rhythmic cycles) of Buk music were played by Kyung-Ja Ko. The playing conditions were as follows: Jajinmori-jangdan rhythmic cycle of twelve beats, […] (12/8 metre, ? =96 to 144), in an allegro moderated tempo and Hwimori-jangdan rhythmic cycle of 4 beats, 2+2 (4/4 metre, ? =208 to 230), in a presto tempo. The sound of a Buk is a match for the frequency of a baritone voice (139.9 to 355.2 Hz). […] Mice were exposed to Buk music or white noise for 5 min. All experiments were carried out in an environment free of other sounds. Buk music was recorded and copied using a MP3 player to ensure precisely the same music was played for mice in all treatment groups.

HIF-1α = HIF-1α protein levels in brain by Western blotting; conditions: oral ketotifen in compound 48/80 mice, p<0.05; FIG. 3 (protein and mRNA)
Experimental: as §1
Western blot analysis was performed on brain tissue extracts, as previously described in (Semenza GL: Hypoxia-inducible factor 1: oxygen homeostasis and disease pathophysiology. Trends Mol Med 2001; 7:345-350).

VEGF mRNA = VEGF mRNA levels in brain by quantitative real-time PCR; conditions: ketotifen in compound 48/80 mice, p<0.05
Experimental: as §1
Quantitative real-time PCR was performed using SYBR Green master mix and mRNA levels were analyzed using an ABI StepOne real time PCR System (Applied Biosystems, Foster City, Calif., USA). Primer sequences for the reference gene GAPDH and genes of interest were as follows: GAPDH (5′ […] 3′, SEQ ID NO.1; 5′ […] 3′, SEQ ID NO.2); HIF-1α (5′ […] 3′, SEQ ID NO.3; 5′ […] 3′, SEQ ID NO.4); VEGF (5′ […] 3′, SEQ ID NO.5; 5′ […] 3′, SEQ ID NO.6). Typical profile times used were as follows; initial step 95° C. for 10 min followed by a second step at 95° C. for 15 s and 60° C. for 30 s for 40 cycles. Levels of target mRNAs were normalized versus GAPDH. Data were analyzed using the ΔΔCT method.

TNF-α = TNF-α protein levels in brain by ELISA; conditions: ketotifen in compound 48/80 mice
Experimental: as §1
Cytokines levels in serum and brain were analyzed by ELISA, as described previously. Cytokine levels in brain were divided according to the total protein levels, which were estimated using a BCA protein assay kit (Pierce, Rockford, Ill., USA).

ER-β mRNA = ER-β mRNA levels in brain by quantitative real-time PCR; conditions: ketotifen in compound 48/80 administered mice, p<0.05

For `CN1CCC(=C2c3ccccc3CC(=O)c3sccc32)CC1` [ketotifen], the “mortality induced by compound 48/80” value (mice) was “reduced mortality”, the “HIF-1α levels in brain” value (HIF-1α) was “significantly reduced” and the “brain VEGF mRNA levels” value (VEGF mRNA) was “significantly reduced”. The “TNF-α protein levels in brain” value (TNF-α) was “significantly reduced” and the “ER-β mRNA levels in brain” value (ER-β mRNA) was “significantly increased”.
